Laboratory results published in patent US12685312B2, “Sulfonamide apyrase inhibitors” (Texas Crop Science, Inc., priority 2022, dated 2026).

Tested on: apyrase
Assay: Screen for apyrase inhibitors (Method 1, in vitro phosphate-release absorbance assay)
Assay type: biochemical
Conditions: inhibitor conc at 1 mM stock, 1 hr room temperature, absorbance 630 nm; rounded average of two assay results
How it was run: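 Phosphate-release colorimetric assay (Windsor method) in 60 mM Hepes, 3 mM MgCl2, 3 mM CaCl2, 3 mM ATP, pH 6.5, with compound or DMSO control added. Released phosphate developed with ammonium molybdate and ascorbic acid/TCA, then stopped with citrate/acetic acid.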

| SMILES | % Inhibition of Apyrase [%] |
| --- | --- |
| O=C(Nc1cccc(C(F)(F)F)c1)c1cccc(NS(=O)(=O)c2ccccc2F)c1 [I-326, 3-((2-fluorophenyl)sulfonamido)-N-(3-(trifluoromethyl)phenyl)benzamide] | 13 |
| O=C(Nc1cccc([N+](=O)[O-])c1)c1ccc(Br)c(S(=O)(=O)Nc2cccc(F)c2)c1 [I-23, 4-bromo-3-(N-(3-fluorophenyl)sulfamoyl)-N-(3-nitrophenyl)benzamide] | 30 |
| O=C(Nc1ccc(F)cc1)c1cccc(S(=O)(=O)N2CCc3ccccc32)c1 [I-512, N-(4-fluorophenyl)-3-(indolin-1-ylsulfonyl)benzamide] | 56 |
| COc1ccc(OC)c(NC(=O)c2cccc(S(=O)(=O)N3c4ccccc4CC3C)c2)c1 (stereo not shown) [I-429, N-(2,5-dimethoxyphenyl)-3-((2-methylindolin-1-yl)sulfonyl)benzamide] | 73 |
| COc1ccc(NS(=O)(=O)c2cccc(C(=O)Nc3cnc4[nH]nc(C)c4c3)c2)cc1 [I-606, 3-(N-(4-methoxyphenyl)sulfamoyl)-N-(3-methyl-1H-pyrazolo[3,4-b]pyridin-5-yl)benzamide] | 16 |
| O=C(Nc1cccc(S(=O)(=O)Nc2cccc(C(F)(F)F)c2)c1)c1ccoc1 [I-762, N-(3-(N-(3-(trifluoromethyl)phenyl)sulfamoyl)phenyl) furan-3-carboxamide] | 16 |
| COc1ccccc1NC(=O)c1ccc(NS(=O)(=O)c2cccc(C(F)(F)F)c2)cc1 [I-919, N-(2-methoxyphenyl)-4-((3-(trifluoromethyl)phenyl)sulfonamido) benzamide] | 58 |
| COC(=O)c1c(C)[nH]c(C(=O)Nc2cccc(S(=O)(=O)Nc3cccc(C(F)(F)F)c3)c2)c1C [I-721, methyl 2,4-dimethyl-5-((3-(N-(3-(trifluoromethyl)phenyl)sulfamoyl)phenyl)carbamoyl)-1H-pyrrole-3-carboxylate] | 57 |
| O=C(Nc1ccccc1NS(=O)(=O)c1cccs1)c1cc(Br)ccc1F [I-835, 5-bromo-2-fluoro-N-(2-(thiophene-2-sulfonamido)phenyl)benzamide] | 52 |
| O=C(c1cc(S(=O)(=O)Nc2ccc(Cl)cc2)ccc1Cl)N1CCc2ccccc21 [I-490, 4-chloro-N-(4-chlorophenyl)-3-(indoline-1-carbonyl)benzenesulfonamide] | 58 |
| CN(c1ccccc1)S(=O)(=O)c1cccc(NC(=O)c2ccncc2)c1 [I-768, N-(3-(N-methyl-N-phenylsulfamoyl)phenyl)isonicotinamide] | 7 |
| O=C(Nc1ccc2c(c1)OCCCO2)c1cccc(S(=O)(=O)Nc2ccc3c(c2)OCO3)c1 [I-258, 3-(N-(benzo[d][1,3]dioxol-5-yl)sulfamoyl)-N-(3,4-dihydro-2H-benzo[b][1,4]dioxepin-7-yl)benzamide] | 61 |
| O=C(Nc1cccc(F)c1)c1ccc(S(=O)(=O)Nc2ccc(Cl)cc2)cc1 [I-223, 4-(N-(4-chlorophenyl)sulfamoyl)-N-(3-fluorophenyl)benzamide] | 74 |
| Cc1cc(C(=O)Nc2cccc(S(=O)(=O)Nc3ccccc3F)c2)no1 [I-731, N-(3-(N-(2-fluorophenyl)sulfamoyl)phenyl)-5-methylisoxazole-3-carboxamide] | 55 |
| O=C(Nc1ccc(Br)cc1)c1cccc(S(=O)(=O)Nc2cccc([N+](=O)[O-])c2)c1 [I-24, N-(4-bromophenyl)-3-(N-(3-nitrophenyl)sulfamoyl)benzamide] | 29 |
| Cc1ccc(C(=O)Nc2cccc(S(=O)(=O)Nc3ccc(Br)cc3)c2)cc1 [I-194, N-(3-(N-(4-bromophenyl)sulfamoyl)phenyl)-4-methylbenzamide] | 74 |
| Cc1ccnc(NC(=O)c2cccc(NS(=O)(=O)c3ccc(C)c(F)c3)c2)c1 [I-651, 3-((3-fluoro-4-methylphenyl)sulfonamido)-N-(4-methylpyridin-2-yl)benzamide] | 50 |
| COc1ccc([N+](=O)[O-])cc1S(=O)(=O)Nc1ccccc1NC(=O)c1ccc(C(C)(C)C)cc1 [I-831, 4-(tert-butyl)-N-(2-((2-methoxy-5-nitrophenyl)sulfonamido)phenyl)benzamide] | 59 |
| O=C(c1cc(S(=O)(=O)Nc2ccc(Cl)cc2)ccc1Cl)N1CCCc2ccccc21 [I-559, 4-chloro-N-(4-chlorophenyl)-3-(1,2,3,4-tetrahydroquinoline-1-carbonyl)benzenesulfonamide] | 52 |
| Cc1nc2ccc(NC(=O)c3ccc(S(=O)(=O)N4CCCc5ccccc54)cc3)cc2s1 [I-889, 4-((3,4-dihydroquinolin-1(2H)-yl)sulfonyl)-N-(2-methylbenzo[d]thiazol-6-yl)benzamide] | 39 |

| SMILES | % Inhibition of Apyrase [%] |
| --- | --- |
| Cc1cnc(C(=O)Nc2cccc(S(=O)(=O)Nc3cccc(C(F)(F)F)c3)c2)cn1 [I-769, 5-methyl-N-(3-(N-(3-(trifluoromethyl)phenyl)sulfamoyl)phenyl) pyrazine-2-carboxamide] | 7 |
| N#Cc1ccc(NC(=O)c2ccc(Cl)c(S(=O)(=O)N3CCc4ccccc43)c2)cc1 [I-557, 4-chloro-N-(4-cyanophenyl)-3-(indolin-1-ylsulfonyl)benzamide] | 52 |
| O=C(Nc1cccc2cccnc12)c1cccc(NS(=O)(=O)c2cccs2)c1 [I-630, N-(quinolin-8-yl)-3-(thiophene-2-sulfonamido)benzamide] | 66 |
| Cc1ccc(S(=O)(=O)Nc2ccccc2F)cc1C(=O)Nc1ccc(F)cc1F [I-611, N-(2,4-difluorophenyl)-5-(N-(2-fluorophenyl)sulfamoyl)-2-methylbenzamide] | 4 |
| CC1Cc2ccccc2N1S(=O)(=O)c1cccc(C(=O)Nc2ccc(Oc3ccccc3)cc2)c1 (stereo not shown) [I-483, 3-((2-methylindolin-1-yl)sulfonyl)-N-(4-phenoxyphenyl)benzamide] | 58 |
| O=C(Nc1cccnc1)c1cccc(NS(=O)(=O)c2ccc(Br)cc2)c1 [I-648, 3-((4-bromophenyl)sulfonamido)-N-(pyridin-3-yl)benzamide] | 51 |
| COc1ccc(S(=O)(=O)N2CCCCC2)cc1NC(=O)c1cccc(S(=O)(=O)Nc2ccccc2OC)c1 [I-578, N-(2-methoxy-5-(piperidin-1-ylsulfonyl)phenyl)-3-(N-(2-methoxyphenyl)sulfamoyl)benzamide] | 48 |
| CCOc1ccc(NS(=O)(=O)c2c(C)cccc2NC(=O)c2ccccc2OC)cc1 [I-820, N-(2-(N-(4-ethoxyphenyl)sulfamoyl)-3-methylphenyl)-2-methoxybenzamide] | 57 |
| CN(c1ccccc1)S(=O)(=O)c1cccc(NC(=O)c2cc(C3CC3)on2)c1 [I-773, 5-cyclopropyl-N-(3-(N-methyl-N-phenylsulfamoyl)phenyl)isoxazole-3-carboxamide] | 3 |
| CC(C)(C)c1ccc(C(=O)Nc2ccccc2NS(=O)(=O)c2cccc(S(N)(=O)=O)c2)cc1 [I-838, 4-(tert-butyl)-N-(2-((3-sulfamoylphenyl)sulfonamido)phenyl) benzamide] | 29 |
| Cc1ccc(C(=O)Nc2cccc([N+](=O)[O-])c2)cc1S(=O)(=O)Nc1ccc(C(=O)O)cc1 [I-45, 4-((2-methyl-5-((3-nitrophenyl)carbamoyl)phenyl)sulfonamido) benzoic acid] | 13 |
| COc1ccc([N+](=O)[O-])cc1NC(=O)c1cccc(S(=O)(=O)Nc2ccc(Cl)cc2)c1 [I-254, 3-(N-(4-chlorophenyl)sulfamoyl)-N-(2-methoxy-5-nitrophenyl)benzamide] | 61 |
| Cc1ccc(NC(=O)c2cccc(S(=O)(=O)N(C)c3ccc(C)cc3)c2)cc1 [I-502, 3-(N-methyl-N-(p-tolyl)sulfamoyl)-N-(p-tolyl)benzamide] | 57 |
| O=C(Nc1ccc(Br)cc1)c1ccc(NS(=O)(=O)c2ccc(F)c(F)c2)cc1 [I-948, N-(4-bromophenyl)-4-((3,4-difluorophenyl)sulfonamido)benzamide] | 43 |
| COc1ccccc1NS(=O)(=O)c1cccc(C(=O)Nc2c(C)nc(O)nc2O)c1 [I-461, N-(2,4-dihydroxy-6-methylpyrimidin-5-yl)-3-(N-(2-methoxyphenyl)sulfamoyl)benzamide] | 59 |
| COc1cccc(NC(=O)c2cccc(S(=O)(=O)Nc3ccc4c(c3)OCO4)c2)c1 [I-253, 3-(N-(benzo[d][1,3]dioxol-5-yl)sulfamoyl)-N-(3-methoxyphenyl)benzamide] | 61 |
| CN(C1CCCCC1)S(=O)(=O)c1ccccc1NC(=O)c1c(F)cccc1F [I-824, N-(2-(N-cyclohexyl-N-methylsulfamoyl)phenyl)-2,6-difluorobenzamide] | 52 |
| Cc1ccc(NC(=O)c2ccc(NS(=O)(=O)c3ccc(F)cc3)cc2)c(C)c1 [I-951, N-(2,4-dimethylphenyl)-4-((4-fluorophenyl)sulfonamido)benzamide] | 38 |
| CN(c1ccccc1)S(=O)(=O)c1cccc(NC(=O)c2nn(C)c(=O)c3ccccc23)c1 [I-763, 3-methyl-N-(3-(N-methyl-N-phenylsulfamoyl)phenyl)-4-oxo-3,4-dihydrophthalazine-1-carboxamide] | 15 |
| Cc1ccc(NC(=O)c2ccc(S(=O)(=O)Nc3cccc(C(F)(F)F)c3)cc2)c(C)c1 [I-225, N-(2,4-dimethylphenyl)-4-(N-(3-(trifluoromethyl)phenyl)sulfamoyl)benzamide] | 72 |
